The numbers were not newly measured in patent publication US5948931A (priority 1997, dated 1999), which cites them from elsewhere.

For this data set the following is noted: pH 10, 27° C.; known to those skilled in the art; cited from earlier work.

Consider `O=C(CP(=O)(O)O)Oc1ccc([N+](=O)[O-])cc1` [p-nitrophenyl phosphonoacetate], for which the “hydrolysis vs. p-nitrophenyl acetate (times slower)” value is listed as 250 ×.
